Measured values taken from US8785459B2, “Quinazoline compounds as kinase inhibitors” (Development Center for Biotechnology, priority 2011, dated 2014).

What was measured:
A375 = assay: Anti-proliferative activity, CellTiter-96 assay, A375; format: cell-based; conditions: Homo sapiens, A-375, A375 cells, 72 hours incubation
In short: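 Cells in DMEM with 10% FCS at 37° C., 5% CO2, plated at 2000 cells/well for 24 h, then exposed to graded compound concentrations for 72 h. CellTiter-96 Aqueous One reagent added for 4.0 h; viability read as absorbance at 490 nm.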

FGFR1 kinase = FGFR1 kinase (Homo sapiens (Human), UniProt P11362); assay: FGFR1 kinase assay; format: biochemical
Description: Inhibition of FGFR1 kinase activity by compounds disclosed herein was quantified by measuring the amount of [^33P] incorporated into the substrate in the presence of a test compound. Briefly, a reaction mixture of 25 μL final volume containing 1 ng of FGFR1 kinase (FGFR1 kinase domain alone, Millipore), 5 μg of the substrate [poly(Glu-Tyr), Sigma], kinase reaction buffer (14 mM MOPS pH 7.0, 0.2 mM EDTA, 0.5% glycerol, 0.001% Brij-35, 0.01% β-mercaptoethanol, 0.1 mg/ml BSA, 100 μM ATP, 0.1 μCi per well [^33P]-γ-ATP (2,500-3,000 Ci/mmol)), and a test compound (100 nM, diluted with 4% DMSO) or DMSO (as the control) was incubated at 30° C. for 60 minutes. The reaction was stopped by adding 5 μL of 3% phosphoric acid solution. The resultant reaction solution was then harvested onto a filter plate (UniFilter-96 GF/B, PerkinElmer), washed 20 times for 5 min with d.d. H2O, and followed by the addition of 30 μL of MicroScint™-20 Cocktail (PerkinElmer). The radioactivity retained on the filter membrane was measured by TopCount™ scintillation detector (PerkinElmer). The results were analyzed by using linear regression software (GraphPad Prism™ 4; GraphPad Software Inc.). IC50 value is defined as the concentration of the test compound which achieves a half-maximal inhibition of the kinase activity.

[1] = Body weight of A375 tumor-bearing NOD/SCID mice under treatment; format: in vivo; conditions: A375 xenograft, 50 mg/kg i.p. qd x 28
Description: (§1) In Vivo Anti-Cancer Activities
(§2) A375 (1×10^6 cell/mouse) tumor cells were subcutaneously injected into the right flank of 5 week old male NOD/SCID mice (BioLASCO, Taiwan). Tumor volume was measured with a digital caliper once tumor was palpable (within 10 to 15 days after implantation). Compound treatment was started after 1-3 weeks when the tumors had reached an average volume of ˜50 to 100 mm^3. Mice were divided into 5 groups as listed in Table 6 below and were given intraperitoneal injections with the test compound at 50 mg/kg, or vehicle control (DMSO:Cremophor:PBS (pH 7.4)=[…]) one time every day. The test compound, 58, was formulated in a solution of 5% DMSO, 10% Cremophor, and 85% PBS. The positive control, PLX4032, was dissolved in 100% PBS. Body weights of the mice were measured every two to three days and the tumor sizes in different groups of mice were measured by digital caliper every two to three days.

A375 tumor cells = assay: In vivo anti-cancer activity, subcutaneous A375 tumor in NOD/SCID mice; conditions: A375 xenograft, 50 mg/kg i.p. qd x 28
Description: as §1, §2

Chain of FGFR1 kinase (P11362 478-767): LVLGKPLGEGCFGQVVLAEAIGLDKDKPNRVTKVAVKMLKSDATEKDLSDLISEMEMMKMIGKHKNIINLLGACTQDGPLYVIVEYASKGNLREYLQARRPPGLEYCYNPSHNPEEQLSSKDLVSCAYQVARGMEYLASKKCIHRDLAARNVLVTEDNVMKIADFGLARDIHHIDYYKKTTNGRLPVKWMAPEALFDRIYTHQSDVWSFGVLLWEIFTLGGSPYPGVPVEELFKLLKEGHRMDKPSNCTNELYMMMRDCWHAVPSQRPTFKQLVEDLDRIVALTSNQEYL

COc1cc(-c2ccc3ncnc(Nc4cccc(O)c4)c3c2)ccc1O [Compound 8, 4-(4-(3-hydroxyphenylamino)quinazolin-6-yl)-2-methoxyphenol]
IC50 (A375): 900 ± 200 nM
IC50 (FGFR1 kinase): 413 nM

COc1cc(-c2ccc3ncnc(Nc4cc(O)ccc4F)c3c2)ccc1O [Compound 58, 4-(4-(2-fluoro-5-hydroxyphenylamino)quinazolin-6-yl)-2-methoxyphenol]
IC50 (A375): 500 ± 100 nM
weight loss [1]: without inducing significant weight loss
tumor growth in vivo (A375 tumor cells): inhibited tumor growth in vivo
IC50 (FGFR1 kinase): 131 nM
